Test results from ChEMBL document CHEMBL1130956 (Bioorg Med Chem Lett, 1998).

Experiments:
[1] = target: T1, Cysteinyl leukotriene receptor 1 (Cavia porcellus, UniProt Q2NNR5); test: Binding affinity against leukotriene D4 receptor in [3H]LTD4 binding assay
T1 sequence (Q2NNR5 whole entry): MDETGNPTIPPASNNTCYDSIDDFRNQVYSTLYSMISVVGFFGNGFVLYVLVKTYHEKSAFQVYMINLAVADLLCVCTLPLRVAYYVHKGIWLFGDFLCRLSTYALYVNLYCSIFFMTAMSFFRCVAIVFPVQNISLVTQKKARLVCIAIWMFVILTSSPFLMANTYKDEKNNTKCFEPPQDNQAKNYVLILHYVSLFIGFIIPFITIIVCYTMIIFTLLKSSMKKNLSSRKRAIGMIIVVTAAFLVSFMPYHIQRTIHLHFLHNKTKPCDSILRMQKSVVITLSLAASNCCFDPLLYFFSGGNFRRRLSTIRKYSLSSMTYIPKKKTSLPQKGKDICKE

[2] = system: U-937; test: Ability to mobilize Ca+2 in LTD4 dependent Ca+2 mobilization assay in differentiated human monocytic U-937 cells; format: functional, cell-based
[3] = system: Cavia porcellus; test: In vivo activity was determined after 1 mg/kg oral administration for 1 hr in a guinea pig efficacy model for allergic airway obstruction; format: functional
[4] = system: Cavia porcellus; test: In vivo activity was determined after oral administration for 2 hr in a guinea pig efficacy model for allergic airway obstruction; format: functional
[5] = system: Cavia porcellus; test: In vivo activity was determined after oral administration for 1 hr in a guinea pig efficacy model for allergic airway obstruction; format: functional
[6] = system: Cavia porcellus; test: In vivo activity was determined after 1 mg/kg oral administration for 2 hrs in a guinea pig efficacy model for allergic airway obstruction; format: functional
[7] = system: Cavia porcellus; test: In vivo activity was determined after oral administration for 2 hrs in a guinea pig efficacy model for allergic airway obstruction; format: functional

SMILES	IC50 [1]	IC50 [2]	inhibition in vivo at 1 mg/kg [3]	ED50 [4]	Inhibition [5]	ED50 [5]	inhibition in vivo at 1 mg/kg [6]	ED50 [7]
COc1cc(C(=O)NS(=O)(=O)c2ccccc2C)ccc1Cc1cn(C(=O)N(C)C)c2ccc(NC(=O)OC3CCCC3)cc12	0.4 nM	1 nM	39%					
COc1cc(C(=O)NS(=O)(=O)c2ccccc2C)ccc1Cc1cn(C(=O)N(C)c2ccccc2)c2ccc(NC(=O)OC3CCCC3)cc12	0.4 nM	0.2 nM		1.1 mg/kg				
COc1cc(C(=O)NS(=O)(=O)c2ccccc2C)ccc1Cc1cn(C(=O)NCCN(C)C)c2ccc(NC(=O)OC3CCCC3)cc12	0.5 nM	0.1 nM			34%			
COc1cc(C(=O)NS(=O)(=O)c2ccccc2C)ccc1Cc1cn(C=O)c2ccc(NC(=O)OC3CCCC3)cc12	1 nM	0.6 nM				0.84 mg/kg		
COc1cc(C(=O)NS(=O)(=O)c2ccccc2C)ccc1Cc1cn(C(N)=O)c2ccc(NC(=O)OC3CCCC3)cc12	0.5 nM	0.3 nM				1.6 mg/kg		
COc1cc(C(=O)NS(=O)(=O)c2ccccc2C)ccc1Cc1cn(C(=O)NCCCc2ccccc2)c2ccc(NC(=O)OC3CCCC3)cc12	0.5 nM	0.1 nM				1.6 mg/kg		
COc1cc(C(=O)NS(=O)(=O)c2ccccc2C)ccc1Cc1c[nH]c2ccc(NC(=O)OC3CCCC3)cc12 [N-DEALKYLATED DERIVATIVE]	1 nM	2 nM	40%					
COc1cc(C(=O)NS(=O)(=O)c2ccccc2C)ccc1Cc1cn(C(=O)N2CCOCC2)c2ccc(NC(=O)OC3CCCC3)cc12	0.4 nM	2 nM			8%			
COc1cc(C(=O)NS(=O)(=O)c2ccccc2C)ccc1Cc1cn(C(F)F)c2ccc(NC(=O)OC3CCCC3)cc12	1 nM	0.4 nM					58%	
COc1cc(C(=O)NS(=O)(=O)c2ccccc2C)ccc1Cc1cn(C(=O)N(c2ccccc2)c2ccccc2)c2ccc(NC(=O)OC3CCCC3)cc12	2 nM	0.4 nM		1.1 mg/kg				
CCN(CC)C(=O)n1cc(Cc2ccc(C(=O)NS(=O)(=O)c3ccccc3C)cc2OC)c2cc(NC(=O)OC3CCCC3)ccc21	0.5 nM	0.8 nM				1.2 mg/kg		
COc1cc(C(=O)NS(=O)(=O)c2ccccc2C)ccc1Cc1cn(C)c2ccc(NC(=O)OC3CCCC3)cc12 [ZAFIRLUKAST]		1 nM						0.9 mg/kg
